Source: ChEMBL document CHEMBL4507267 (2021)

How the values were obtained:
[1] = target: RAC-gamma serine/threonine-protein kinase (Homo sapiens) (UniProt Q9Y243); conditions: Compound concentration 1000.0 nM
[2] = target: Cyclin-dependent kinase 18 (Homo sapiens) (UniProt Q07002); conditions: Compound concentration 1000.0 nM
[3] = target: Serine/threonine-protein kinase PRP4 homolog (Homo sapiens) (UniProt Q13523); conditions: Compound concentration 1000.0 nM
[4] = target: Interleukin-1 receptor-associated kinase 3 (Homo sapiens) (UniProt Q9Y616); conditions: Compound concentration 1000.0 nM
[5] = target: Serine/threonine-protein kinase Nek9 (Homo sapiens) (UniProt Q8TD19); conditions: Compound concentration 1000.0 nM
[6] = target: Serine/threonine-protein kinase ULK3 (Homo sapiens) (UniProt Q6PHR2); conditions: Compound concentration 1000.0 nM
[7] = target: Dual specificity tyrosine-phosphorylation-regulated kinase 1B (Homo sapiens) (UniProt Q9Y463); conditions: Compound concentration 1000.0 nM
[8] = target: Calcium/calmodulin-dependent protein kinase type IV (Homo sapiens) (UniProt Q16566); conditions: Compound concentration 1000.0 nM
[9] = test system: Receptor-type tyrosine-protein kinase FLT3 (Homo sapiens), P36888 [UNDEFINED MUTATION]; conditions: Compound concentration 1000.0 nM
[10] = target: Protein-tyrosine kinase 6 (Homo sapiens) (UniProt Q13882); conditions: Compound concentration 1000.0 nM
[11] = test system: Receptor-type tyrosine-protein kinase FLT3 (Homo sapiens), P36888 [UNDEFINED MUTATION]; conditions: Compound concentration 1000.0 nM; remark: listed apart in the source
[12] = target: Receptor-interacting serine/threonine-protein kinase 1 (Homo sapiens) (UniProt Q13546); conditions: Compound concentration 1000.0 nM
[13] = target: Ephrin type-A receptor 1 (Homo sapiens) (UniProt P21709); conditions: Compound concentration 1000.0 nM
[14] = target: Serine/threonine-protein kinase 3 (Homo sapiens) (UniProt Q13188); conditions: Compound concentration 1000.0 nM
[15] = target: Calcium/calmodulin-dependent protein kinase kinase 1 (Homo sapiens) (UniProt Q8N5S9); conditions: Compound concentration 1000.0 nM
[16] = test system: Tyrosine-protein kinase ABL1 (Homo sapiens), P00519 [T315I]; conditions: Compound concentration 1000.0 nM
[17] = target: Leukocyte tyrosine kinase receptor (Homo sapiens) (UniProt P29376); conditions: Compound concentration 1000.0 nM
[18] = target: Mitogen-activated protein kinase 14 (Homo sapiens) (UniProt Q16539); conditions: Compound concentration 1000.0 nM
[19] = test system: Epidermal growth factor receptor (Homo sapiens), P00533 [T790M]; conditions: Compound concentration 1000.0 nM
[20] = target: TGF-beta receptor type-2 (Homo sapiens) (UniProt P37173); conditions: Compound concentration 1000.0 nM
[21] = target: Sodium-dependent dopamine transporter (Homo sapiens) (UniProt Q01959); conditions: Compound concentration 10.0 uM
[22] = target: Uncharacterized serine/threonine-protein kinase SBK3 (Homo sapiens) (UniProt P0C264); conditions: Compound concentration 1000.0 nM
[23] = target: Serine/threonine-protein kinase MAK (Homo sapiens) (UniProt P20794); conditions: Compound concentration 1000.0 nM
[24] = target: Serine/threonine-protein kinase 36 (Homo sapiens) (UniProt Q9NRP7); conditions: Compound concentration 1000.0 nM
[25] = target: Tyrosine-protein kinase receptor UFO (Homo sapiens) (UniProt P30530); conditions: Compound concentration 1000.0 nM
[26] = target: Serine/threonine-protein kinase TAO1 (Homo sapiens) (UniProt Q7L7X3); conditions: Compound concentration 1000.0 nM
[27] = target: Mitogen-activated protein kinase kinase kinase kinase 3 (Homo sapiens) (UniProt Q8IVH8); conditions: Compound concentration 1000.0 nM
[28] = target: Tyrosine-protein kinase JAK3 (Homo sapiens) (UniProt P52333); conditions: Compound concentration 1000.0 nM
[29] = target: Cyclin-dependent kinase 8 (Homo sapiens) (UniProt P49336); conditions: Compound concentration 1000.0 nM
[30] = target: Inhibitor of nuclear factor kappa-B kinase subunit alpha (Homo sapiens) (UniProt O15111); conditions: Compound concentration 1000.0 nM
[31] = target: Muscarinic acetylcholine receptor M3 (Homo sapiens) (UniProt P20309); conditions: Compound concentration 10.0 uM
[32] = target: Protein kinase C delta type (Homo sapiens) (UniProt Q05655); conditions: Compound concentration 1000.0 nM
[33] = target: Dual specificity protein kinase CLK2 (Homo sapiens) (UniProt P49760); conditions: Compound concentration 1000.0 nM
[34] = test system: Phosphatidylinositol 4,5-bisphosphate 3-kinase catalytic subunit alpha isoform (Homo sapiens), P42336 [E545A]; conditions: Compound concentration 1000.0 nM
[35] = target: MAP kinase-activated protein kinase 5 (Homo sapiens) (UniProt Q8IW41); conditions: Compound concentration 1000.0 nM
[36] = target: Mitogen-activated protein kinase 11 (Homo sapiens) (UniProt Q15759); conditions: Compound concentration 1000.0 nM
[37] = target: Eukaryotic translation initiation factor 2-alpha kinase 1 (Homo sapiens) (UniProt Q9BQI3); conditions: Compound concentration 1000.0 nM
[38] = target: Platelet-derived growth factor receptor alpha (Homo sapiens) (UniProt P16234); conditions: Compound concentration 1000.0 nM
[39] = target: Macrophage-stimulating protein receptor (Homo sapiens) (UniProt Q04912); conditions: Compound concentration 1000.0 nM
[40] = test system: Leucine-rich repeat serine/threonine-protein kinase 2 (Homo sapiens), Q5S007 [G2019S]; conditions: Compound concentration 1000.0 nM
[41] = target: Serine/threonine-protein kinase DCLK3 (Homo sapiens) (UniProt Q9C098); conditions: Compound concentration 1000.0 nM
[42] = target: Epithelial discoidin domain-containing receptor 1 (Homo sapiens) (UniProt Q08345); conditions: Compound concentration 1000.0 nM
[43] = target: Cytoplasmic tyrosine-protein kinase BMX (Homo sapiens) (UniProt P51813); conditions: Compound concentration 1000.0 nM
[44] = target: Tyrosine-protein kinase Mer (Homo sapiens) (UniProt Q12866); conditions: Compound concentration 1000.0 nM
[45] = target: Death-associated protein kinase 1 (Homo sapiens) (UniProt P53355); conditions: Compound concentration 1000.0 nM

Receptor-type tyrosine-protein kinase FLT3 (Homo sapiens), P36888 [UNDEFINED MUTATION], sequence (P36888 whole entry, looked up, change not shown): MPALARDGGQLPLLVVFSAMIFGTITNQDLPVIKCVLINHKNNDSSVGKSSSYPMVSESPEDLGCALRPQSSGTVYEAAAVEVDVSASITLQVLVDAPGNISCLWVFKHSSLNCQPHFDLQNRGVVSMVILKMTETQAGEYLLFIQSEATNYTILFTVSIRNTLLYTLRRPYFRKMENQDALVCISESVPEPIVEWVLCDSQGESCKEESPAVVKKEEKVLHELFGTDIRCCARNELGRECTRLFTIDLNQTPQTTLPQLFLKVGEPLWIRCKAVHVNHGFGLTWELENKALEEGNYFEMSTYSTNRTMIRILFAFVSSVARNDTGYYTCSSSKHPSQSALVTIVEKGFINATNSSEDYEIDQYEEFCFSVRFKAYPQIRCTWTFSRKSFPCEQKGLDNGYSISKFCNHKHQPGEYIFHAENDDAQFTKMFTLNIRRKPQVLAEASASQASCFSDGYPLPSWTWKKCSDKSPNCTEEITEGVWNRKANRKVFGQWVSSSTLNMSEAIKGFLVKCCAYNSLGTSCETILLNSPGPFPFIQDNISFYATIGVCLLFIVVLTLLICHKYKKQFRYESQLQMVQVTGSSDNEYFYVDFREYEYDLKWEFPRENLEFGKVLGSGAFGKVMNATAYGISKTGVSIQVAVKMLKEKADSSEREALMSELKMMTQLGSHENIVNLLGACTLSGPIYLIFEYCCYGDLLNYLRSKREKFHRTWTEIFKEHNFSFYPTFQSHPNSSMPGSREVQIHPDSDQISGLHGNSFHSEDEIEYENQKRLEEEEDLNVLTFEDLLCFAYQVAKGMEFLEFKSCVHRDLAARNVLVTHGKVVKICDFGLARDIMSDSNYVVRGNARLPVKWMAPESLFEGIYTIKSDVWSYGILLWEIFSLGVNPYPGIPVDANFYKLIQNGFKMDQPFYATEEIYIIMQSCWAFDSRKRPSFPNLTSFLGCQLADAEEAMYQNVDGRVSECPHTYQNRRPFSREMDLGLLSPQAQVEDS
RAC-gamma serine/threonine-protein kinase (Homo sapiens), sequence (Q9Y243 whole entry): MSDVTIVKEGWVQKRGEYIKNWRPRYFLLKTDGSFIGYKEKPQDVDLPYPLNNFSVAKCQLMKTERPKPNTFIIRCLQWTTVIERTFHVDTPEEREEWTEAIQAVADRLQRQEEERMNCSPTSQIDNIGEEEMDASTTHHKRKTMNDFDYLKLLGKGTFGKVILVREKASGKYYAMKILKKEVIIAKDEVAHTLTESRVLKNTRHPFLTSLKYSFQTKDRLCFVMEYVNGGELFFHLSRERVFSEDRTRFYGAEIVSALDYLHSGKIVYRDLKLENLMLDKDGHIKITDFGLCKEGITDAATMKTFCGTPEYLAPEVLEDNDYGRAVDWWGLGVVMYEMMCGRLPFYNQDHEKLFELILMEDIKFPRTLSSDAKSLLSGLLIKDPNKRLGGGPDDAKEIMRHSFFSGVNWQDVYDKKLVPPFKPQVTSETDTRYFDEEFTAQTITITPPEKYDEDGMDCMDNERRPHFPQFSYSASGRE
Epithelial discoidin domain-containing receptor 1 (Homo sapiens), sequence (Q08345 whole entry, the tested form may be a part): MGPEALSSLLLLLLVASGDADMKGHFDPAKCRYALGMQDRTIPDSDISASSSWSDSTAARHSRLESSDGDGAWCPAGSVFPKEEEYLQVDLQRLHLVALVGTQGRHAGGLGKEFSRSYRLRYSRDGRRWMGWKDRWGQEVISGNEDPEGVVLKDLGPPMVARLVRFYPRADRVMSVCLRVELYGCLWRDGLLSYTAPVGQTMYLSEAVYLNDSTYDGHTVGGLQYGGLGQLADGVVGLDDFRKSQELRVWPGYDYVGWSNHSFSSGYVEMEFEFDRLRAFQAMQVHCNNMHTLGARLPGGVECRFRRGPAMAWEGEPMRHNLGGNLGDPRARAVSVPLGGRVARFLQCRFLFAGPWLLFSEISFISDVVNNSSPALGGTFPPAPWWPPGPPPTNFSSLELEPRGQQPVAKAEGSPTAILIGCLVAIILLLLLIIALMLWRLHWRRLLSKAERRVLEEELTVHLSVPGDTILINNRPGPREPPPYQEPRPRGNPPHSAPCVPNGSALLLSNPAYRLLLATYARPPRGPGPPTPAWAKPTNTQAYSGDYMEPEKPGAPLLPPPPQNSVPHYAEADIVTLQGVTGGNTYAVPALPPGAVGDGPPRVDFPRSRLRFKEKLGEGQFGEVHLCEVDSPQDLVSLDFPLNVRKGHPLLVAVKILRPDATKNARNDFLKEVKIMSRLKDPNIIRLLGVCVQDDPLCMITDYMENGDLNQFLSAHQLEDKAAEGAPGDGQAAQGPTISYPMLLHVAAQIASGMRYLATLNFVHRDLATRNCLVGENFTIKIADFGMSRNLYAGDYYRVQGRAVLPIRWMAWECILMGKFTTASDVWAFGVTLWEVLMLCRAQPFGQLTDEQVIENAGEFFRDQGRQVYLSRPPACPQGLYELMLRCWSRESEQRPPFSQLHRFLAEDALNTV
Serine/threonine-protein kinase DCLK3 (Homo sapiens), sequence (Q9C098 whole entry, the tested form may be a part): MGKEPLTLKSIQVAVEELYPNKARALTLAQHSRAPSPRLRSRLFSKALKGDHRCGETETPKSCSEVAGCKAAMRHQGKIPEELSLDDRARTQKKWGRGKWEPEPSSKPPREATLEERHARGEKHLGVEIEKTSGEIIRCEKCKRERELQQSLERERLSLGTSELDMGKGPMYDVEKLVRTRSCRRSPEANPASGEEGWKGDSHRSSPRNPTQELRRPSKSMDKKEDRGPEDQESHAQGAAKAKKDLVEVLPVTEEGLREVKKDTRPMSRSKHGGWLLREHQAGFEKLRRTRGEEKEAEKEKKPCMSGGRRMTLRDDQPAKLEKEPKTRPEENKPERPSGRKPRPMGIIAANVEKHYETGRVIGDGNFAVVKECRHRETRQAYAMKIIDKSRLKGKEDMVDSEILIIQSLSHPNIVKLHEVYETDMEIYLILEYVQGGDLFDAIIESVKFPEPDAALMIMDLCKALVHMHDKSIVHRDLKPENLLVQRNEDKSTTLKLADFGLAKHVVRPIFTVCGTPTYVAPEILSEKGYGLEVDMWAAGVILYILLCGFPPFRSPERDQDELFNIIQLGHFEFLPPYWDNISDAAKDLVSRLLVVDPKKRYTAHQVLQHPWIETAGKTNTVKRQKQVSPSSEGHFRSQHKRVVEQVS
Muscarinic acetylcholine receptor M3 (Homo sapiens), sequence (P20309 whole entry, looked up): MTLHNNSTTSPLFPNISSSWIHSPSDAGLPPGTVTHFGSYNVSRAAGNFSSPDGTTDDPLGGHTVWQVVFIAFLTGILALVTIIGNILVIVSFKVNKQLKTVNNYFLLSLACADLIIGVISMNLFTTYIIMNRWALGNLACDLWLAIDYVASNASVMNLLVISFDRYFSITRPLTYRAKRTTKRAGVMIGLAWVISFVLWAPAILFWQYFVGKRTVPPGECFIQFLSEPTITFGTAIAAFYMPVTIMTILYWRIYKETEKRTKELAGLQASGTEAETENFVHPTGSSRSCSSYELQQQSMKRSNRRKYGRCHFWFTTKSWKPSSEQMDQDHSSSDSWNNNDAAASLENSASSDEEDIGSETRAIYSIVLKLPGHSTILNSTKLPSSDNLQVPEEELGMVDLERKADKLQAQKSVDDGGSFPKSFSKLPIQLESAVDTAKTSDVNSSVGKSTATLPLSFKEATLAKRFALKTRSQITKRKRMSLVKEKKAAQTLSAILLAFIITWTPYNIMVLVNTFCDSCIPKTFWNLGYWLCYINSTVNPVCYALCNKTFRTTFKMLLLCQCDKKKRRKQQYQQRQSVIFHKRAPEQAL
Receptor-interacting serine/threonine-protein kinase 1 (Homo sapiens), sequence (Q13546 whole entry): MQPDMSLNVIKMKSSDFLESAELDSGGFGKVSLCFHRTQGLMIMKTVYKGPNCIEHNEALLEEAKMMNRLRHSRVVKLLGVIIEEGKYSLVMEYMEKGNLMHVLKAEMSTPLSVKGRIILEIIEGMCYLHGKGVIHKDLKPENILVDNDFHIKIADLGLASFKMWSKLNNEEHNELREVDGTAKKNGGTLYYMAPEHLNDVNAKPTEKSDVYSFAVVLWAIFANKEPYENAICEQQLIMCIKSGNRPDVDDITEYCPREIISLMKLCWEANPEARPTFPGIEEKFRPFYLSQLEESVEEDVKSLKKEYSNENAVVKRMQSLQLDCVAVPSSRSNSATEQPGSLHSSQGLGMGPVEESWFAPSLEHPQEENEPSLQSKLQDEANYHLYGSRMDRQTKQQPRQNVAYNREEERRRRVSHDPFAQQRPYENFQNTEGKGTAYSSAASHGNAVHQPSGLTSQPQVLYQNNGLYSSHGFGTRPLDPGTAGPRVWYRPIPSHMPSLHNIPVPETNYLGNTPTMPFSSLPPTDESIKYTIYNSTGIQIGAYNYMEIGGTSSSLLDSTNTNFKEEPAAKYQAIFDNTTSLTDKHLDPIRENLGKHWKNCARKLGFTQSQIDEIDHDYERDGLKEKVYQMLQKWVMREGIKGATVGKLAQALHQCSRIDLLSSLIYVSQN
Calcium/calmodulin-dependent protein kinase type IV (Homo sapiens), sequence (Q16566 whole entry): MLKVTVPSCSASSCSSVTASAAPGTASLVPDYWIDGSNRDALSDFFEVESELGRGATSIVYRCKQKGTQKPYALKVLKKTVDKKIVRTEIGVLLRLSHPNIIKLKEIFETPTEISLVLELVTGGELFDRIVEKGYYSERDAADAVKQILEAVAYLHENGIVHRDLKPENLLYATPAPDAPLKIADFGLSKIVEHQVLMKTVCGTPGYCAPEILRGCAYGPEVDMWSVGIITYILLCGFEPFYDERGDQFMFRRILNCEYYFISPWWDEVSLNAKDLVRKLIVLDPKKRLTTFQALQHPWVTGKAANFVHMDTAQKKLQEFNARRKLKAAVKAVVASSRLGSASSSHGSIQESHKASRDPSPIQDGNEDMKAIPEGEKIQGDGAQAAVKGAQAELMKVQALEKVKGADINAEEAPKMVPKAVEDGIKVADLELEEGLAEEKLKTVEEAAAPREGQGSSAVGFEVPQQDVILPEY

In the case of Cc1c(NC(=O)c2cc(C(N)=O)nc3cc(F)ccc23)c(C(F)(F)F)nn1Cc1ccc(C(C)(C)C)cc1 [BAY-588], the residual activity [1] is reported as 100%, the residual activity [2] is reported as 88% and the residual activity [3] is reported as 73%. It also gave a residual activity [4] of 100%, a residual activity [5] of 100% and a residual activity [6] of 97%. The residual activity [7] was 81%, the residual activity [8] was 90% and the residual activity [9] was 100%. The residual activity [10] was 100%, the residual activity [11] was 100% and the residual activity [12] was 100%. For the same compound, the residual activity [13] was 96%, the residual activity [14] was 90% and the residual activity [15] was 98%. The residual activity [16] was 100%, the residual activity [17] was 83% and the residual activity [18] was 100%. It also gave a residual activity [19] of 100%, a residual activity [20] of 100% and an inhibition [21] of 14.7%. It also gave a residual activity [22] of 100%, a residual activity [23] of 85% and a residual activity [24] of 97%. For the same compound, the residual activity [25] was 100%, the residual activity [26] was 100% and the residual activity [27] was 98%. It also gave a residual activity [28] of 100%, a residual activity [29] of 100% and a residual activity [30] of 100%. It also gave an inhibition [31] of 1.86%, a residual activity [32] of 100% and a residual activity [33] of 76%. It also gave a residual activity [34] of 100%, a residual activity [35] of 87% and a residual activity [36] of 91%. It also gave a residual activity [37] of 100%, a residual activity [38] of 100% and a residual activity [39] of 80%. The residual activity [40] was 100%, the residual activity [41] was 100% and the residual activity [42] was 95%. The residual activity [43] was 88%, the residual activity [44] was 86% and the residual activity [45] was 100%.

Cc1c(NC(=O)c2cc(C(N)=O)nc3cc(F)ccc23)c(C(F)(F)F)nn1Cc1ccc(C#N)cc1 [BAY-876] showed a residual activity [1] of 81%, a residual activity [2] of 100% and a residual activity [3] of 93%. The residual activity [4] was 94%, the residual activity [5] was 95% and the residual activity [6] was 74%. It also gave a residual activity [7] of 87%, a residual activity [8] of 76% and a residual activity [9] of 95%. For the same compound, the residual activity [10] was 100%, the residual activity [11] was 68% and the residual activity [12] was 100%. The residual activity [13] was 74%, the residual activity [14] was 96% and the residual activity [15] was 97%. The residual activity [16] was 100%, the residual activity [17] was 82% and the residual activity [18] was 91%. It also gave a residual activity [19] of 100%, a residual activity [20] of 100% and an inhibition [21] of 8.22%. The residual activity [22] was 100%, the residual activity [23] was 79% and the residual activity [24] was 100%. For the same compound, the residual activity [25] was 100%, the residual activity [26] was 93% and the residual activity [27] was 99%. The residual activity [28] was 90%, the residual activity [29] was 56% and the residual activity [30] was 65%. It also gave an inhibition [31] of -6.5%, a residual activity [32] of 95% and a residual activity [33] of 89%. The residual activity [34] was 81%, the residual activity [35] was 84% and the residual activity [36] was 88%. The residual activity [37] was 100%, the residual activity [38] was 73% and the residual activity [39] was 76%. It also gave a residual activity [40] of 100%, a residual activity [41] of 92% and a residual activity [42] of 1.5%. The residual activity [43] was 85%, the residual activity [44] was 100% and the residual activity [45] was 86%.
